Values after ≈ are worked out from the molar mass of the structure shown. Where two headings read alike, the source gives them in different places. Marks after values point to notes of the source that are not given here. Where a SMILES comes first, the peptide text is derived from it.
Legend:
[1] = tested on: Klebsiella pneumoniae NCTC 13368; assay type: cell-based; conditions: KP13368, in µg/mL; for MIC on initial panels: medium and unit not given; for MIC: untitled table, medium/unit not given, values match RPMI of Table 2
[2] = tested on: Acinetobacter baumannii AYE; assay type: cell-based; conditions: for MIC on initial panels: medium and unit not given; for MIC on initial panels / MIC: in µg/mL; for MIC: untitled table, medium/unit not given, values match RPMI of Table 2
[3] = tested on: Pseudomonas aeruginosa PA01; experiment: Antibacterial activity assay (broth microdilution MIC); assay type: cell-based; conditions: for MIC, Stability in serum (MH) / MIC on initial panels: in µg/mL; for MIC on initial panels: medium and unit not given; for MIC: untitled table, medium/unit inferred, values match RPMI of Table 2
[4] = tested on: Pseudomonas aeruginosa NCTC 13437; experiment: as above; assay type: cell-based; conditions: PA13437, in µg/mL; for MIC on initial panels: medium and unit not given; for MIC: untitled table, medium/unit not given, values match RPMI of Table 2
[5] = tested on: MS Staphylococcus aureus ATCC 9144; assay type: cell-based; conditions: for MIC on initial panels / MIC: MSSA9144; for MIC on initial panels: medium and unit inferred; for MIC: untitled table, medium/unit not given, values match RPMI of Table 2, in µg/mL
[6] = tested on: EMR Staphylococcus aureus-15 (EMRSA-15); assay type: cell-based; conditions: for MIC on initial panels / MIC: EMRSA15; for MIC on initial panels: medium and unit inferred; for MIC: untitled table, medium/unit inferred, values match RPMI of Table 2
[7] = tested on: EMR Staphylococcus aureus-16 (EMRSA-16); assay type: cell-based; conditions: EMRSA16; for MIC on initial panels: medium and unit not given, in µg/mL; for MIC: untitled table, medium/unit inferred, values match RPMI of Table 2
[8] = tested on: VS Enterococcus faecalis NCTC 775; experiment: Antibacterial activity assay (broth microdilution MIC); assay type: cell-based; conditions: for MIC, Peptide concentration: Mueller-Hinton broth; for MIC on initial panels: VSE775, medium and unit not given, in µg/mL
[9] = tested on: VR Enterococcus faecium NCTC 12204; experiment: as above; assay type: cell-based; conditions: VRE12204, in µg/mL; for MIC on initial panels: medium and unit not given; for MIC: untitled table, medium/unit not given, values match RPMI of Table 2
VRE12201 = experiment: as above; assay type: cell-based, Enterococcus faecalis; conditions: medium and unit inferred
Description: Antibacterial activity assay.
The bacterial strains used are as in the above examples. A table of strains is provided below to aid understanding.

HEK293 = experiment: Cytotoxicity assay (XTT); assay type: cell-based, human; conditions: for Toxicity HEK293: unit not given; for Toxicity HEK293 (EC50), Peptide concentration: value printed in parentheses
How it was run: (§1)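 Cells seeded 24 h in EMEM with 10% FBS and NEAA at 37 °C, 10% CO2, then medium replaced with peptide dilutions. After a further 24 h exposure, viability read by XTT tetrazolium staining.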

HeLa = experiment: Cytotoxicity assay (XTT); assay type: cell-based, human; parameters: Toxicity HeLa: unit not given beside the values; conditions: for Toxicity HeLa: unit not given; for Toxicity HeLa (EC50), Peptide concentration: value printed in parentheses
How it was run: as §1

human red blood cells = experiment: Haemolysis assay; conditions: for Toxicity HC50, Peptide concentration: red cells of human, 1 h
Description: Haemolysis assay. Haemolysis was tested by incubating titrations of AMPs in PBS with freshly collected human red blood cells for 1 hour at 37 C. Control wells were treated with 0.1% Triton-X-100 to ensure complete lysis, or PBS-only to represent no lysis. Samples were spun down to remove non-lysed cells and the OD^550 of the supernatant was measured using a Clariostar plate reader. The percentage of haemolysis was calculated as % haemolysis=(AP−AB)/(AC−AB)×100, where AP is the absorbance value for a known peptide concentration, AC is the absorbance of the 0.1% Triton-X-100 control, AB is the absorbance of the PBS control. Data presented are averages and standard error from three biological replicate experiments.
Methods: The natural AMP (termed AMP1) was modified to produce synthetic variants, AMPs 1a, 2a, 2b, 3a and 3b. Minimum inhibitory concentrations (MICs) were determined using the microbroth dilution assay with Mueller Hinton broth (MHB) or RPMI (with 5% FBS) and stability in serum was tested by conducting MICs in MHB containing 10% FBS. Synergy experiments were performed following a checkerboard protocol. Cytotoxicity was tested against HEK293 and HeLa immortalised human cell-lines using the XTT viability stain and by quantifying haemolysis of human red blood cells. Patch clamp analysis was performed using the Port-a-Patch® automated patch-clamp system on DPhPE/DPhPG (model for a Gram-negative plasma membrane) or DPhPG (Gram-positive) model membranes challenged with peptide. The murine lung infection model was performed using the agar bead model with Staphylococcus aureus strain NCTC 13616 (EMRSA-15).

[10] = AYE, Serum (10% fetal bovine serum)

Row | MIC, Stability in serum (MH) ([1]; No serum) | MIC, Stability in serum (MH) ([1]; Serum (10% fetal bovine serum)) | MIC on initial panels [1] | MIC [1] | MIC, Stability in serum (MH) ([2]; AYE, No serum) [µg/mL] | MIC, Stability in serum (MH) [2, 10] [µg/mL] | MIC on initial panels ([2]; AYE) | MIC ([2]; AYE) | MIC, Stability in serum (MH) ([3]; No serum) | MIC, Stability in serum (MH) ([3]; Serum (10% fetal bovine serum)) | MIC on initial panels [3] | MIC [3] [µg/mL] | MIC, Stability in serum (MH) ([4]; No serum) | MIC, Stability in serum (MH) ([4]; Serum (10% fetal bovine serum)) | MIC on initial panels [4] | MIC [4] | MIC on initial panels [5] [µg/mL] | MIC [5] | MIC on initial panels [6] [µg/mL] | MIC [6] [µg/mL] | Compound | further results
1 | 2 | 4 | 2-4 | 32 | 2 (≈ 0.709 µM) | 2 (≈ 0.709 µM) | 1-2 | 8-16 | 4 | >128 | 4 | > 32 | 4 | 32* | 8 | >32 | 2 (≈ 0.709 µM) | 4 | 4 (≈ 1.42 µM) | 4 (≈ 1.42 µM) | CC(C)C[C@H](NC(=O)[C@H](Cc1ccc(O)cc1)NC(=O)[C@H](Cc1c[nH]cn1)NC(=O)[C@@H](NC(=O)[C@H](CC(C)C)NC(=O)[C@H](C)NC(=O)[C@H](C)NC(=O)[C@H](CCCNC(=N)N)NC(=O)CNC(=O)[C@@H](NC(=O)[C@H](Cc1c[nH]cn1)NC(=O)[C@H](CCCNC(=N)N)NC(=O)CNC(=O)[C@@H](NC(=O)[C@H](Cc1c[nH]cn1)NC(=O)[C@H](C)NC(=O)[C@H](C)NC(=O)[C@H](CCCNC(=N)N)NC(=O)[C@H](CCCNC(=N)N)NC(=O)[C@H](Cc1ccccc1)NC(=O)[C@H](Cc1ccccc1)NC(=O)[C@H](CO)NC(=O)CNC(=O)[C@H](Cc1c[nH]c2ccccc12)NC(=O)CN)C(C)C)C(C)C)[C@@H](C)O)C(N)=O [Pleurocidin-KR] (H-GWGSFFRRAAHVGRHVGRAALTHYL-NH2; N-terminus assumed) | MIC, Peptide concentration ([2]; RPMI (value in parentheses)): 8 to 16 µg/mL; MIC, Peptide concentration ([6]; EMR -15 (EMRSA-15)): 4 (4) μg/ml; MIC on initial panels [7]: 4; MIC [7]: 8 µg/mL (≈ 2.83 µM); MIC, Peptide concentration [8]: 16 (NG) μg/ml; MIC on initial panels [8]: 16; MIC on initial panels [9]: 4; MIC [9]: 16; MIC on initial panels (VRE12201): 32 µg/mL (≈ 11.3 µM); Toxicity HEK293 (HEK293): 40.1 ± 4.1; Toxicity HEK293 (EC50), Peptide concentration (HEK293): (40.1 ± 4.1) μg/ml; Toxicity HeLa (HeLa): 30.7 ± 2.6; Toxicity HeLa (EC50), Peptide concentration (HeLa): (30.7 ± 2.6) μg/ml; Toxicity HC50, Peptide concentration (human red blood cells): >400 µg/mL
2 | 8 | 16 | 4-8 | 32 | 2 (≈ 0.754 µM) | 4 (≈ 1.51 µM) | 2 | 16 | 16* | >128 | 16-32 | > 32 | 16* | >128 | 32 | >32 | 8 (≈ 3.01 µM) | 32 | 64 (≈ 24.1 µM) | 32 (≈ 12.1 µM) | CC(C)C[C@H](NC(=O)[C@H](Cc1ccc(O)cc1)NC(=O)[C@H](Cc1c[nH]cn1)NC(=O)[C@@H](NC(=O)[C@H](CC(C)C)NC(=O)[C@H](C)NC(=O)[C@H](C)NC(=O)[C@H](CCCCN)NC(=O)CNC(=O)[C@H](C)NC(=O)[C@H](Cc1c[nH]cn1)NC(=O)[C@H](CCCCN)NC(=O)CNC(=O)[C@H](C)NC(=O)[C@H](Cc1c[nH]cn1)NC(=O)[C@H](C)NC(=O)[C@H](C)NC(=O)[C@H](CCCCN)NC(=O)[C@H](CCCCN)NC(=O)[C@H](Cc1ccccc1)NC(=O)[C@H](Cc1ccccc1)NC(=O)[C@H](CO)NC(=O)CNC(=O)[C@H](Cc1c[nH]c2ccccc12)NC(=O)CN)[C@@H](C)O)C(N)=O [Pleurocidin-VA] (H-GWGSFFKKAAHAGKHAGKAALTHYL-NH2; N-terminus assumed) | MIC, Peptide concentration ([2]; AYE): 16 µg/mL (≈ 6.03 µM); MIC, Peptide concentration ([5]; ATCC 9144): 8 µg/mL (≈ 3.01 µM); MIC on initial panels [7]: 64-128; MIC [7]: > 32 µg/mL; MIC, Peptide concentration [8]: 64-128 (NG) μg/ml; MIC on initial panels [8]: 64-128; MIC on initial panels [9]: 32-64; MIC [9]: 32; MIC on initial panels (VRE12201): > 128 µg/mL; Toxicity HEK293 (HEK293): ~400; Toxicity HEK293 (EC50), Peptide concentration (HEK293): (~400) μg/ml; Toxicity HeLa (HeLa): >400; Toxicity HeLa (EC50), Peptide concentration (HeLa): (>400) μg/ml; Toxicity HC50, Peptide concentration (human red blood cells): >>400 μg/ml

Row | Compound | MIC, Stability in serum (MH) ([1]; No serum) | MIC, Stability in serum (MH) ([1]; Serum (10% fetal bovine serum)) | MIC on initial panels [1] | MIC [1] | MIC, Stability in serum (MH) ([2]; AYE, No serum) [µg/mL] | MIC, Stability in serum (MH) [2, 10] [µg/mL] | MIC on initial panels ([2]; AYE) | MIC ([2]; AYE) | MIC, Stability in serum (MH) ([3]; No serum) | MIC, Stability in serum (MH) ([3]; Serum (10% fetal bovine serum)) | MIC on initial panels [3] | MIC [3] [µg/mL] | MIC, Stability in serum (MH) ([4]; No serum) | MIC, Stability in serum (MH) ([4]; Serum (10% fetal bovine serum)) | MIC on initial panels [4] | MIC [4] | MIC on initial panels [5] [µg/mL] | MIC [5] | MIC on initial panels [6] [µg/mL] | MIC [6] [µg/mL] | further results
3 | CC(C)C[C@@H](NC(=O)[C@@H](Cc1ccc(O)cc1)NC(=O)[C@@H](Cc1c[nH]cn1)NC(=O)[C@H](NC(=O)[C@@H](CC(C)C)NC(=O)[C@@H](C)NC(=O)[C@@H](C)NC(=O)[C@@H](CCCNC(=N)N)NC(=O)CNC(=O)[C@H](NC(=O)[C@@H](Cc1c[nH]cn1)NC(=O)[C@@H](CCCNC(=N)N)NC(=O)CNC(=O)[C@H](NC(=O)[C@@H](Cc1c[nH]cn1)NC(=O)[C@@H](C)NC(=O)[C@@H](C)NC(=O)[C@@H](CCCNC(=N)N)NC(=O)[C@@H](CCCNC(=N)N)NC(=O)[C@@H](Cc1ccccc1)NC(=O)[C@@H](Cc1ccccc1)NC(=O)[C@@H](CO)NC(=O)CNC(=O)[C@@H](Cc1c[nH]c2ccccc12)NC(=O)CN)C(C)C)C(C)C)[C@H](C)O)C(N)=O [D-pleurocidin-KR] (HELM PEPTIDE1{G.[dW].G.[dS].[dF].[dF].[dR].[dR].[dA].[dA].[dH].[dV].G.[dR].[dH].[dV].G.[dR].[dA].[dA].[dL].[dT].[dH].[dY].[dL].[am]}$$$$V2.0; N-terminus assumed) | 2 | 1 | 2 | 4 | 2 (≈ 0.709 µM) | 0.5 (≈ 0.177 µM) | 2 | 2 | 4 | 4 | 4 | 16 (≈ 5.67 µM) | 4 | 8 | 4 | 16 | 2 (≈ 0.709 µM) | 0.25-0.5 | 2 (≈ 0.709 µM) | 0.5 (≈ 0.177 µM) | MIC, Peptide concentration ([6]; Mueller-Hinton broth): 2 µg/mL (≈ 0.709 µM); MIC, Peptide concentration ([6]; Mueller-Hinton broth, listed as D-PLEUROCIDIN-KR): 4 µg/mL (≈ 1.42 µM); MIC on initial panels [7]: 4; MIC [7]: 1 µg/mL (≈ 0.354 µM); MIC, Peptide concentration [8]: 8 (NG) μg/ml; MIC on initial panels [8]: 8; MIC on initial panels [9]: 2; MIC [9]: 2; MIC on initial panels (VRE12201): 8 µg/mL (≈ 2.83 µM); Toxicity HEK293 (HEK293): 36.4 ± 4.3; Toxicity HEK293 (EC50), Peptide concentration (HEK293): (36.4 ± 4.3) μg/ml; Toxicity HeLa (HeLa): 25.3 ± 2.2; Toxicity HeLa (EC50), Peptide concentration (HeLa): (25.3 ± 2.2) μg/ml; therapeutic index over red blood cell haemolysis (human red blood cells): at least 100 fold; Toxicity HC50, Peptide concentration (human red blood cells): ~400 µg/mL

From patent US20230047825A1, “ANTIMICROBIAL PEPTIDES” (priority 2019, published 2023)
